Laboratory results reported in ChEMBL document CHEMBL4138206, “Acovenoside A Induces Mitotic Catastrophe Followed by Apoptosis in Non-Small-Cell Lung Cancer Cells” (J Nat Prod, 2017).
Activity calls are given as the source filed them. No cut-off for these calls is given here.

Columns and labels:
A549 [1] = experiment: Induction of mitochondrial dysfunction in human A549 cells assessed as cell population with intact mitochondrial potential at 100 nM after 48 hrs by JC-1 staining based flow cytometry (reference value: 7%); assay type: functional
A549 [2] = experiment: Induction of mitochondrial dysfunction in human A549 cells assessed as cell population with mitochondrial potential loss at 100 nM after 48 hrs by JC-1 staining based flow cytometry (reference value: 7%); assay type: functional
A549 [3] = experiment: Induction of apoptosis in human A549 cells assessed as activation of caspase 3/7 at 100 nM after 48 hrs using Z-DEVD-R110 as substrate by flow cytometry (reference value: 9%); assay type: functional
A549 [4] = experiment: Cytotoxicity against human A549 cells assessed as reduction in cell viability after 24 hrs by XTT assay; assay type: functional, cell-based; details: A549, 24 h
A549 [5] = experiment: Cell cycle arrest in human A549 cells assessed as accumulation at G2/M phase at 100 nM after 24 hrs by propidium iodide staining based flow cytometry (reference value: 18%); assay type: functional
PBMC = experiment: Cytotoxicity against human PBMC cells assessed as reduction in cell viability after 48 hrs by XTT assay; assay type: cell-based
HCC827 [6] = experiment: Induction of apoptosis in human HCC827 cells assessed as increase in hypodiploid DNA content at 50 to 100 nM after 72 hrs by propidium iodide staining flow cytometry; assay type: functional, cell-based
A549 [7] = experiment: Cytotoxicity against human A549 cells assessed as reduction in cell viability pretreated with ROS scavenger edaravone for 1 hr followed by compound addition measured after 24 hrs by XTT assay; assay type: functional, cell-based
[8] = target: T1, Cyclin-dependent kinase 1/cyclin B1 (Homo sapiens) (UniProt P06493+P14635); experiment: Activation of CDK1/cyclinB1 in human A549 cells at 50 to 100 nM after 12 hrs by western blot analysis; assay type: cell-based
CAL-12T [9] = experiment: Cytotoxicity against human CAL-12T cells assessed as reduction in cell viability after 48 hrs by XTT assay; assay type: functional, cell-based
MRC5 = experiment: Cytotoxicity against human MRC5 cells assessed as reduction in cell viability after 24 hrs by XTT assay; assay type: cell-based; details: MRC5, 24 h
A549 [10] = experiment: Induction of intracellular ROS production in human A549 cells at 50 nM after 48 hrs by H2DCFDA staining based flow cytometry relative to control; assay type: functional
A549 [11] = experiment: Induction of mitochondrial dysfunction in human A549 cells assessed as cell population with intact mitochondrial potential at 50 nM after 48 hrs by JC-1 staining based flow cytometry (reference value: 7%); assay type: functional
CAL-12T [12] = experiment: Induction of apoptosis in human CAL-12T cells assessed as increase in hypodiploid DNA content at 50 to 100 nM after 72 hrs by propidium iodide staining flow cytometry; assay type: functional, cell-based
A549 [13] = experiment: Cell cycle arrest in human A549 cells assessed as accumulation at G0/G1 phase at 50 nM after 24 hrs by propidium iodide staining based flow cytometry (reference value: 61%); assay type: functional
A549 [14] = experiment: Induction of intracellular ROS production in human A549 cells at 100 nM after 48 hrs by H2DCFDA staining based flow cytometry relative to control; assay type: functional
[15] = target: T1, Cyclin-dependent kinase 1/cyclin B1 (Homo sapiens); experiment: Activation of CDK1/cyclinB1 in human A549 cells at 100 nM after 24 hrs by western blot analysis; assay type: cell-based
A549 [16] = experiment: Cell cycle arrest in human A549 cells assessed as accumulation at G2/M phase after 24 hrs by propidium iodide staining based flow cytometry; assay type: functional
[17] = target: Cyclin-dependent kinase 1 (Homo sapiens) (UniProt P06493); experiment: Activation of CDK1 in human A549 cells assessed as increase in CDK1 phosphorylation at Tyr15 residues at 100 nM after 24 hrs by western blot analysis; assay type: cell-based
A549 [18] = experiment: Induction of mitochondrial dysfunction in human A549 cells assessed as cell population with mitochondrial potential loss at 50 nM after 48 hrs by JC-1 staining based flow cytometry (reference value: 7%); assay type: functional
A549 [19] = experiment: Induction of mitochondrial dysfunction in human A549 cells assessed as decrease in ratio of red to green fluorescence intensity at 100 nM after 48 hrs by JC-1 staining based flow cytometry; assay type: functional; parameters: scale not given: the % may be the effect or the level left
HCC827 [20] = experiment: Cytotoxicity against human HCC827 cells assessed as reduction in cell viability after 48 hrs by XTT assay; assay type: functional, cell-based; details: HCC827, 48 h
A549 [21] = experiment: Cytotoxicity against human A549 cells assessed as reduction in cell viability pretreated with ROS scavenger tempol for 1 hr followed by compound addition measured after 24 hrs by XTT assay; assay type: functional, cell-based
A549 [22] = experiment: Induction of apoptosis in human A549 cells assessed as activation of caspase 3/7 at 50 nM after 48 hrs using Z-DEVD-R110 as substrate by flow cytometry (reference value: 9%); assay type: functional
A549 [23] = experiment: Induction of mitotic catastrophe in human A549 cells assessed as population of cells showing increase in size at 100 nM after 24 hrs by flow cytometry (reference value: 5.7%); assay type: functional
HCC827 [24] = experiment: Cell cycle arrest in human HCC827 cells at 50 to 100 nM after 24 hrs by propidium iodide staining based flow cytometry; assay type: functional
A549 [25] = experiment: Induction of mitochondrial dysfunction in human A549 cells assessed as decrease in ratio of red to green fluorescence intensity at 50 nM after 48 hrs by JC-1 staining based flow cytometry; assay type: functional; parameters: scale not given: the % may be the effect or the level left
A549 [26] = experiment: Induction of apoptosis in human A549 cells assessed as hypodiploid DNA content at 100 nM after 72 hrs by propidium iodide staining flow cytometry (reference value: 3 to 4%); assay type: functional
A549 [27] = experiment: Cell cycle arrest in human A549 cells assessed as accumulation at G0/G1 phase at 100 nM after 24 hrs by propidium iodide staining based flow cytometry (reference value: 61%); assay type: functional
A549 [28] = experiment: Induction of apoptosis in human A549 cells assessed as hypodiploid DNA content at 50 nM after 72 hrs by propidium iodide staining flow cytometry (reference value: 3 to 4%); assay type: functional
A549 [29] = experiment: Cell cycle arrest in human A549 cells assessed as accumulation at G2/M phase at 50 nM after 24 hrs by propidium iodide staining based flow cytometry (reference value: 18%); assay type: functional
A549 [30] = experiment: Cytotoxicity against human A549 cells assessed as reduction in cell viability after 48 hrs by XTT assay; assay type: functional, cell-based; details: A549, 48 h
A549 [31] = experiment: Induction of apoptosis in human A549 cells assessed as activation of caspase 3/7 after 48 hrs by flow cytometry; assay type: functional, cell-based
A549 [32] = experiment: Cytotoxicity against human A549 cells assessed as reduction in cell viability pretreated with ROS scavenger ebselen for 1 hr followed by compound addition measured after 24 hrs by XTT assay; assay type: functional, cell-based
CAL-12T [33] = experiment: Cell cycle arrest in human CAL-12T cells at 50 to 100 nM after 24 hrs by propidium iodide staining based flow cytometry; assay type: functional
MDA-MB-231 [34] = experiment: Cytotoxicity against human MDA-MB-231 cells assessed as reduction in cell viability after 24 hrs by XTT assay; assay type: functional, cell-based; details: MDA-MB-231, 24 h
[35] = target: T1, Cyclin-dependent kinase 1/cyclin B1 (Homo sapiens); experiment: Activation of CDK1/cyclinB1 in human A549 cells assessed as increase in cytokinesis defects at 100 nM after 24 hrs by DAPI staining based assay; assay type: cell-based
MDA-MB-231 [36] = experiment: Cytotoxicity against human MDA-MB-231 cells assessed as reduction in cell viability after 48 hrs by XTT assay; assay type: functional, cell-based; details: MDA-MB-231, 48 h
A549 [37] = experiment: Induction of apoptosis in human A549 cells assessed as hypodiploid DNA content at 10 nM after 72 hrs by propidium iodide staining flow cytometry (reference value: 3 to 4%); assay type: functional

T1 sequence (P06493 whole entry, looked up): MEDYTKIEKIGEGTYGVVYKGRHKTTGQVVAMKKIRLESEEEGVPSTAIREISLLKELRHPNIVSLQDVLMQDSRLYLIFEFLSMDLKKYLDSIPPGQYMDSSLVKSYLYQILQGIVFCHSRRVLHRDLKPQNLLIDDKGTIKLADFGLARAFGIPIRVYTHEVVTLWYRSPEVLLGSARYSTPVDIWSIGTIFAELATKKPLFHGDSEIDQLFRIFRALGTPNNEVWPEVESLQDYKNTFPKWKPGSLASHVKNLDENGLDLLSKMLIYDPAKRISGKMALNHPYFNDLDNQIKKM
T1 sequence (P14635 whole entry, looked up): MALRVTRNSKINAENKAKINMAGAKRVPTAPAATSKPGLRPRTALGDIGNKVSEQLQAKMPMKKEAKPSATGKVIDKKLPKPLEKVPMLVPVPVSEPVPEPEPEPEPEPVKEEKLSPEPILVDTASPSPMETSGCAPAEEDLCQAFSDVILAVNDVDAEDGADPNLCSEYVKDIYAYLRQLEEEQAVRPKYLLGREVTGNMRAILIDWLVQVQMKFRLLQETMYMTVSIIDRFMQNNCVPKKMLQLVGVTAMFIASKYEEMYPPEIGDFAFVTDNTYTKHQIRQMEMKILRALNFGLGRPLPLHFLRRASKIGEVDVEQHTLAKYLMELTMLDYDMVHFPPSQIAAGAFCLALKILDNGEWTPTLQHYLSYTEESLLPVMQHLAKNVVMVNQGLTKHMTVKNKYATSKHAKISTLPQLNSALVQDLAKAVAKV
Chain of Cyclin-dependent kinase 1 (Homo sapiens) (P06493 whole entry, looked up): as the sequence (P06493 whole entry, looked up) above

Compound `COc1cccc2c1C(=O)c1c(O)c3c(c(O)c1C2=O)C[C@@](O)(C(=O)CO)C[C@@H]3O[C@H]1C[C@H](N)[C@H](O)[C@H](C)O1` [DOXORUBICIN] has an Activity (A549 [1]) of 12.4% and an Activity (A549 [2]) of 8.2%.
In the case of `CO[C@H]1[C@H](O)[C@H](O[C@@H]2C[C@H]3CC[C@@H]4[C@H](CC[C@]5(C)[C@@H](C6=CC(=O)OC6)CC[C@]45O)[C@@]3(C)[C@H](O)C2)O[C@@H](C)[C@@H]1O`, the Activity (A549 [3]) is reported as 65%, the IC50 (A549 [4]) is reported as 95 nM and the Activity (A549 [5]) is reported as 43%. For the same compound, the Activity (PBMC) was “Non-Toxic”, the Activity (HCC827 [6]) was “Active” and the Activity (A549 [7]) was “Active”. For the same compound, the Activity [8] was “Active”, the IC50 (CAL-12T [9]) was 161 nM and the IC50 (MRC5) was greater than 1000 nM. The “fold change (FC)” value (A549 [10]) was 1.5, the Activity (A549 [11]) was 9% and the Activity (CAL-12T [12]) was “Active”. The Activity (A549 [13]) was 50%, the “fold change (FC)” value (A549 [14]) was 2.8 and the Activity [15] was “Active”. The Activity (A549 [16]) was “Dose-dependent effect”, the Activity [17] was “Active” and the Activity (A549 [18]) was 8.8%. The Activity (A549 [19]) was 40%, the IC50 (HCC827 [20]) was 701 nM and the Activity (A549 [21]) was “Active”. For the same compound, the Activity (A549 [22]) was 38%, the Activity (A549 [23]) was 29.8% and the Activity (HCC827 [24]) was “inactive”. For the same compound, the Activity (A549 [1]) was 13.9%, the Activity (A549 [25]) was 20% and the Activity (A549 [26]) was 51 - 55%. For the same compound, the Activity (A549 [27]) was 31%, the Activity (A549 [28]) was 13 - 17% and the Activity (A549 [29]) was 29%. The Activity (A549 [2]) was 9%, the IC50 (A549 [30]) was 68 nM and the Activity (A549 [31]) was “Dose-dependent effect”. For the same compound, the Activity (A549 [32]) was “Active”, the Activity (CAL-12T [33]) was “Active” and the IC50 (MDA-MB-231 [34]) was 4200 nM. For the same compound, the Activity [35] was 34.3%, the IC50 (MDA-MB-231 [36]) was 1500 nM and the Activity (A549 [37]) was 3%.
